Among the data in PubChem BioAssay (NCI) are TGI values, retold here.

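Test compounds were applied to cells in 96-well plates for 48 hours at 5 doses. The concentration for full growth arrest is given as TGI.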 Where only a bound is given, the exact number is not on record here.

Assay in all cases: NCI anticancer screen, dose series, 48 h
Assay [1] has as its system UACC-257 melanoma.
In assay [2] the test system is HOP-62 NSCLC.
Assay [3] deals with SF-539 CNS.
Assay [4] concerns HCT-116 colon.
The subject of assay [5] is SK-OV-3 ovarian.
The subject of assay [6] is HCC-2998 colon.
The subject of assay [7] is T-47D breast.
In assay [8] the test system is HOP-92 NSCLC.
The test system of assay [9] is A498 renal.
For assay [10], the system named is BT-549 breast.
Assay [11] concerns RPMI-8226 leukemia.
The test system of assay [12] is COLO 205 colon.
Assay [13] has as its system UO-31 renal.
Assay [14] relates to OVCAR-8 ovarian.
Assay [15] relates to A549 NSCLC.
Assay [16] has as its system LOX IMVI melanoma.
Assay [17] deals with NCI/ADR-RES ovarian.
Assay [18] deals with EKVX NSCLC.
Assay [19] relates to CAKI-1 renal.
The subject of assay [20] is SNB-75 CNS.

`CN(N=O)c1nc2c(C(N)=O)ncn2s1`: the TGI in assay [1], in assay [2], in assay [3], in assay [4], in assay [5] and in [6] was greater than 100 µM in each case. The TGI in assay [7], in assay [8], in assay [9], in [10], in [11] and in assay [12] was greater than 100 µM each time. Moreover, the TGI in assay [13], in assay [14], in assay [15], in assay [16], in assay [17] and in assay [18] was greater than 100 µM each time. Also, the TGI in assay [19] and in assay [20] was greater than 100 µM throughout.

Consider `O=C1NC(N/N=C\c2ccccc2)=N/C1=C/c1ccccc1`, for which the TGI was greater than 100 µM in assay [1]; 48.2 µM in assay [2]; 43.5 µM in [3]; greater than 100 µM in assay [4]; greater than 100 µM in [5]; 40 µM in [6]. Besides, the TGI in [7] is greater than 100 µM; in assay [8] it was 66.6 µM; in assay [9] it was greater than 100 µM; in assay [10] it was 71.2 µM; in [11], greater than 100 µM; in [12], greater than 100 µM. The TGI in [13] is greater than 100 µM; in assay [14], greater than 100 µM; in [15], greater than 100 µM; in assay [16] it was greater than 100 µM; in assay [17] it was 85.9 µM; in [18], 74.5 µM. For the same compound, the results for the TGI in assay [19] and in assay [20] were 87 µM and 63.2 µM, respectively.

Consider `CCOP(=O)(O)C(Nc1ccc(N=Nc2ccccc2)cc1)c1cccc(C(Nc2ccc(N=Nc3ccccc3)cc2)P(=O)(O)OCC)c1` (configuration not stated), for which the TGI in assay [1] was greater than 100 µM; in assay [2] it was 58.5 µM; in assay [3], greater than 100 µM; in [4], greater than 100 µM; in [5], greater than 100 µM; in assay [6], 71.3 µM. For the same compound, the TGI was greater than 100 µM in assay [7]; greater than 100 µM in assay [8]; 88.6 µM in assay [9]; greater than 100 µM in [10]; 86.5 µM in assay [11]; 43.2 µM in [12]. In addition, the TGI in assay [13] is greater than 100 µM; in assay [14], greater than 100 µM; in assay [15] it was greater than 100 µM; in assay [16], 77.4 µM; in assay [17], greater than 100 µM; in assay [18], greater than 100 µM. For the same compound, the TGI in [19] and in assay [20] was greater than 100 µM throughout.

Regarding `O=C1CSC(c2ccccc2O)N1c1ccc(-n2c(-c3ccccc3)nc3ccccc3c2=O)cc1` (configuration not stated), the TGI was 82.2 µM in assay [1]; 77.5 µM in assay [2]; 58.9 µM in [3]; 35.9 µM in assay [4]; 95.3 µM in assay [5]; greater than 100 µM in assay [6]. In addition, the TGI in [7] was 65.8 µM; in assay [8], 76.5 µM; in assay [9], greater than 100 µM; in [10] it was 61.5 µM; in assay [11] it was greater than 100 µM; in assay [12] it was greater than 100 µM. Moreover, the TGI in assay [13] was 77.2 µM; in assay [14], greater than 100 µM; in [15], greater than 100 µM; in assay [16] it was 69 µM; in assay [17] it was 72.6 µM; in assay [19], greater than 100 µM. This compound showed a TGI in [20] greater than 100 µM.

As for `COC(=O)C(=O)Nc1cc2c3c(c1)Oc1cccc4c1C3(C)c1c(cccc1O2)O4`, the TGI was greater than 100 µM in assay [1]; greater than 100 µM in [2]; greater than 76.6 µM in [3]; greater than 100 µM in assay [4]; greater than 100 µM in [5]; greater than 100 µM in assay [6]. Further, the TGI in assay [7] is greater than 100 µM; in assay [8], greater than 100 µM; in [9] it was greater than 100 µM; in [10], greater than 100 µM; in assay [11] it was greater than 100 µM; in assay [12] it was greater than 31.6 µM. For the same compound, the TGI in assay [13], in assay [14], in [15], in assay [16], in assay [17] and in [18] was greater than 100 µM each time. In addition, the TGI in assay [19] and in assay [20] was greater than 100 µM throughout.

Take `CC(C)(O)c1cc2c(cc1C(C)(C)O)-c1ccccc1-2`: the TGI in assay [1], in assay [3], in assay [6], in [7], in assay [8] and in [9] was greater than 100 µM throughout. Moreover, the TGI in assay [10], in assay [11], in assay [12], in [14], in assay [15] and in assay [16] was greater than 100 µM throughout. For the same compound, the TGI in assay [17], in assay [18], in assay [19] and in assay [20] was greater than 100 µM in each case.

As for `COC(=O)[C@@](NC(=O)OCc1ccccc1)([C@H](C)O)C(F)(F)F`, the TGI in assay [1], in assay [2], in assay [4], in assay [5], in [6] and in assay [7] was greater than 100 µM throughout. For the same compound, the TGI in [8], in assay [9], in assay [10], in assay [11], in [12] and in assay [13] was greater than 100 µM each time. Also, the TGI in [14], in assay [15], in assay [16], in [17], in assay [18] and in assay [19] was greater than 100 µM each time. In [20], this compound registered a TGI greater than 100 µM.

In the case of `CCOC(=O)c1c[nH]c(C(=O)C=[N+]=[N-])c1C1CCN(CC)C1=S` (configuration not stated), the TGI in assay [1], in [2], in assay [4], in [5], in assay [6] and in assay [7] was greater than 100 µM each time. Also, the TGI in [8], in [9], in [10], in assay [11], in assay [12] and in [13] was greater than 100 µM in each case. For the same compound, the TGI in [14], in assay [15], in assay [17], in assay [18], in assay [19] and in [20] was greater than 100 µM throughout.

As to `Cc1ccc(S(=O)(=O)N2CCSCCSCCSCCN(S(=O)(=O)c3ccc(C)cc3)CC2)cc1`, the TGI in assay [1], in [2], in [3], in assay [4], in assay [5] and in assay [6] was greater than 100 µM each time. For the same compound, the TGI in [7], in [8], in assay [9], in assay [10], in [11] and in [12] was greater than 100 µM throughout. Also, the TGI in assay [13], in assay [14], in assay [15], in assay [17], in assay [18] and in assay [20] was greater than 100 µM in each case.

As for `Cc1ccc(S(=O)(=O)N2CCNCCN(S(=O)(=O)c3ccc(C)cc3)CCNCC2)cc1`, the TGI was 33 µM in assay [1]; 34.8 µM in assay [2]; 34.7 µM in assay [3]; 28.5 µM in assay [4]; 41.1 µM in [5]; 33.4 µM in [6]. Besides, the TGI stood at 31.7 µM in assay [7]; 46.7 µM in assay [8]; 47 µM in assay [9]; 47.1 µM in assay [10]; 31.1 µM in assay [12]; 62.6 µM in assay [13]. Further, the TGI in assay [14] was 36.9 µM; in assay [15], greater than 100 µM; in assay [16] it was 25.6 µM; in assay [17], greater than 100 µM; in [18], greater than 100 µM; in [19] it was 73.5 µM. In [20], this compound showed a TGI of 42.8 µM.

Take `CCOC(=O)c1nc2ccc(C(F)(F)F)cc2nc1Nc1ccc(OC)cc1`: the TGI in assay [1] was greater than 100 µM; in assay [2] it was 63.5 µM; in assay [3], 90.1 µM; in assay [4], greater than 100 µM; in assay [6], greater than 100 µM; in assay [7], greater than 100 µM. Further, the TGI in assay [8] is 49.2 µM; in assay [9], greater than 100 µM; in assay [10], 86.4 µM; in [11], greater than 100 µM; in [12], greater than 100 µM; in assay [13] it was greater than 100 µM. Also, the TGI in [14], in assay [15], in assay [16], in assay [17], in assay [18] and in [20] was greater than 100 µM in each case.

For `O=C(NCCNCCNC(=O)c1cc(-c2ccccc2)nc2ccccc12)c1cc(-c2ccccc2)nc2ccccc12`, the TGI in assay [1] worked out at 3.92 µM; in assay [2] it was 3.26 µM; in [3], 3.99 µM; in assay [4], 3.18 µM; in [5], 17.7 µM; in assay [6], 3.14 µM. Also, the TGI in assay [7] is 7.62 µM; in assay [8] it was 6.17 µM; in assay [9], 6.54 µM; in assay [10] it was 28.6 µM; in assay [12] it was 3.8 µM; in assay [13], 6.94 µM. Further, the TGI in assay [14] came to 4.54 µM; in [15], 9.13 µM; in assay [16], 3.05 µM; in assay [17] it was 4.18 µM; in [18] it was 11.7 µM; in [19] it was 24.1 µM. The same compound had a TGI in assay [20] of 3.99 µM.

For `CCOc1ccc(NC(=O)C(=O)Nn2c(N)nnc2N)cc1`, the TGI in [1], in [2], in assay [3], in [4], in assay [5] and in assay [6] was greater than 100 µM each time. In addition, the TGI in assay [7], in assay [8], in assay [9], in assay [10], in assay [11] and in assay [13] was greater than 100 µM in each case. The TGI in assay [14], in [15], in assay [16], in assay [17], in [18] and in [19] was greater than 100 µM throughout. In assay [20], this compound gave a TGI greater than 100 µM.

For `O=C(Cn1c2ccc(Br)cc2c2nc3ccccc3nc21)Nc1ccccc1`, the TGI in assay [1] is greater than 100 µM; in assay [2], greater than 100 µM; in assay [4], 27.6 µM; in [5], greater than 100 µM; in assay [6] it was greater than 100 µM; in assay [7], 57.1 µM. In addition, the TGI was 32.4 µM in assay [8]; greater than 100 µM in [9]; greater than 100 µM in assay [10]; greater than 100 µM in assay [11]; greater than 100 µM in assay [12]; greater than 100 µM in assay [13]. The TGI amounted to 28.4 µM in assay [14]; 38.2 µM in assay [15]; 29.2 µM in [16]; 45.1 µM in assay [17]; 86.9 µM in assay [19]; 89.4 µM in assay [20].

On to `CN=c1sc2nc(C#N)c(C#N)nc2n1C`, for which the TGI in assay [1] was greater than 100 µM; in assay [2] it was 42.1 µM; in assay [3] it was greater than 70.9 µM; in assay [4], 36 µM; in [5] it was 49.2 µM; in [6] it was 55.8 µM. Moreover, the TGI was greater than 91.7 µM in assay [7]; 37.7 µM in assay [8]; 35.2 µM in assay [9]; 62.8 µM in [10]; greater than 84.9 µM in assay [11]; 32.1 µM in [12]. Moreover, the TGI is 51.3 µM in assay [13]; 33.9 µM in assay [15]; 46.5 µM in [16]; 59.1 µM in assay [17]; 73.8 µM in [18]; 60.3 µM in assay [19]. In assay [20], this compound had a TGI of 51.4 µM.
